Changes are numbered by the printed parent chain. Blank lines part the entries; values can stand above or below the molecule they belong to.
Experiments:
[1] = molecular target: T1, Aldo-keto reductase family 1 member C1 (Homo sapiens, UniProt Q04828); assay: Inhibition of recombinant human AKR1C1 expressed in Escherichia coli BL21 […] at 100 uM using S-tetralol as substrate in presence of NADP+ by UV-spectrophotometric method relative to control
T1 sequence (Q04828 whole entry): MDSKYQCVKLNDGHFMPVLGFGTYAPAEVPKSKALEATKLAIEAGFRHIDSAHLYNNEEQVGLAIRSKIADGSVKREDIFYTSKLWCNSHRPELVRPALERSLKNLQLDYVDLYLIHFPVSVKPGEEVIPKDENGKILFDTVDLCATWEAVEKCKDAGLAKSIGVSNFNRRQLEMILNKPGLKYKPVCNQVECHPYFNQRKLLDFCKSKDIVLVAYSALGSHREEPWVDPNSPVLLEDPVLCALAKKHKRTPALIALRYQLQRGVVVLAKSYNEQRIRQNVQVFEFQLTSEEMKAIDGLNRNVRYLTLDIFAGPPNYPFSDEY

AKR1C2 = molecular target: T2, AKR1C2 (Homo sapiens, UniProt P52895); assay: in vitro; settings: probe S-tetralol
T2 sequence (P52895 whole entry): T1 sequence (Q04828 whole entry) with T38V, R47H, L54V, C87S, V151M, R170H, Q172L
Description: Inhibition of recombinant human AKR1C2 expressed in Escherichia coli BL21 (D3) at 200 uM using S-tetralol as substrate in presence of NADP+ by UV-spectrophotometric method relative to control

AKR1C1 = molecular target: T3, AKR1C1 (Homo sapiens, UniProt Q04828); assay: in vitro; settings: probe S-tetralol
T3 sequence (Q04828 whole entry): T1 sequence (Q04828 whole entry)
Description: Inhibition of recombinant human AKR1C1 expressed in Escherichia coli BL21 (D3) at 200 uM using S-tetralol as substrate in presence of NADP+ by UV-spectrophotometric method relative to control

[2] = molecular target: T4, Aldo-keto reductase family 1 member C3 (Homo sapiens, UniProt P42330)
T4 sequence (P42330 whole entry): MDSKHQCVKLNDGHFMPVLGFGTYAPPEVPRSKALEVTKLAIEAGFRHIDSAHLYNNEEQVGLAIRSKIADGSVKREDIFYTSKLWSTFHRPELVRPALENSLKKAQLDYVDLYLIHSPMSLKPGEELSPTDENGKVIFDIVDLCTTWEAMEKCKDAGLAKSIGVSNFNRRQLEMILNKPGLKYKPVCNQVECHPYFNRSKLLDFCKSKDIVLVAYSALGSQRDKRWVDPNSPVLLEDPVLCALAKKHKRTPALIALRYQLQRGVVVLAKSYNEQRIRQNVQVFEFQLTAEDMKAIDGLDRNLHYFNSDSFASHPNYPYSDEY
Description: Inhibition of recombinant full-length human N-terminal His6-tagged AKR1C3 expressed in Escherichia coli BL21 (DE3) using phenanthrenequinone as substrate in presence of NADPH generating system

inhibition at 200 µM (AKR1C1): 10.6%
SMILES: CC(C)=CCc1cc(/C=C/C(=O)O)cc(C(=O)NCc2cccc(OC(F)(F)F)c2)c1

inhibition (INH) [1]: Not Active
SMILES: COc1ccc(CNC(=O)c2cc(/C=C/C(=O)O)cc(CC=C(C)C)c2)cc1

The remaining lines, values behind:

SMILES: CC(C)=CCc1cc(/C=C/C(=O)O)cc(C(=O)NCc2ccc(N(C)C)cc2)c1
inhibition (INH) [1]: Not Active

SMILES: CC(C)=CCc1cc(/C=C/C(=O)O)cc(C(=O)NCc2ccc(C)cc2)c1
inhibition at 200 µM (AKR1C2): 66.5%

SMILES: CC/C=C\C[C@H]1C(=O)CC[C@@H]1CC(=O)O [JASMONIC ACID]
Ki [2]: 24 µM

Reference: ChEMBL document CHEMBL4339191 (J Med Chem, 2019)
